In paper PMC11272821, “Mechanistic safety assessment via multi-omic characterisation of systemic pathway perturbations following in vivo MAT2A inhibition” (Archives of Toxicology, 2024):

System: rat liver proteome
Assay: Liver label-free quantitative proteomics
Assay type: in vivo
Settings: for differentially expressed liver proteins vs vehicle control: adjusted p < 0.05 and Log2 FC > 0.5 or < −0.5
Protocol: Liver tissue were homogenized in PreOmics iST buffer (PreOmics) using a bead ruptor. […] Peptides were purified using PreOmics iST cartridges and vacuum-centrifuged to dryness. Peptides were subsequently reconstituted in 2 vol% ACN and 0.1 vol% formic acid for single-run LC–MS analysis. Peptides were analyzed using a Thermo EASY-nLC1200 coupled online to an Exploris 480 Mass Spectrometer equipped with a Nanospray Flex Ion Source integrated with a column oven (PRSO-V1, Sonation) and a FAIMS unit. Peptides were separated using a nonlinear gradient and analyzed by acquiring spectra through Data Independent Acquisition (DIA). Data was analyzed using Spectronaut V15.7.2 (Biognosys AG) direct DIA analysis using an isoform Rat database (UniProt downloaded 22.02.2021) consisting of 9,746 protein entries utilizing the Pulsar search engine. Analysis settings were maintained to factory settings and identification was set to 1% false discovery rate (FDR) for precursor and protein level. Additional information is provided in Supplementary M&M.
Data analysis was performed using R Statistical Software (version 4.3.0). Proteomics, transcriptomics and metabolomics expression changes were visualised using heatmaps showing log2 fold change relative to control. In the heatmaps missing values were highlighted in grey.
Proteomics Analysis. Liver tissue was placed in vials containing 1.4 mm zirconia beads and taken up in 500 µL of PreOmics iST buffer (PreOmics). In a cold room set to 4 °C, tissues were homogenized utilizing a bead Ruptor 12 by shaking for 30 seconds for a total of 5 times using ‘high’ setting. Lysate was normalized using BCA assay (Thermo Fisher Scientific), and subsequently incubated at 95 °C for 10 min for reduction, and alkylation of proteins. A total of 50 μg from each sample was subjected to enzymatic cleavage for 3 h by adding equal amounts of endoproteinase Lys-C and trypsin (ThermoFisher Scientific, # A40009) in a 1:50 (wt/wt) enzyme:protein ratio. De-salting and purification were performed according to the PreOmics iST protocol on a styrene divinylbenzene reversed-phase sulfonate sorbent. Purified peptides were vacuum-centrifuged to dryness and reconstituted in double-distilled water with 2 vol% ACN and 0.1 vol% formic acid (FA) for single-run LC-MS analysis.
Peptides were loaded onto a ReproSil-Pur 120 C18AQ 1.9 µm in-house packed to a 5 µm tip 75u ID × 360u × 50 cm column using Thermo EASY-nLC 1200 coupled online to an Exploris 480 Mass Spectrometer equipped with a Nanospray Flex Ion Source integrated with a column oven (PRSO-V1, Sonation) maintained at 50 °C. Peptides were separated using a nonlinear gradient: Mobile phase A was 0.1 vol% FA and 3 vol% acetonitrile (ACN) in water, Mobile phase B was 90 vol% ACN and 0.1 vol % FA. The gradient was operated at 250 nL/min flowing 3 vol% B for 3 min, 3 to 5 vol% B over 3 min, 5 to 17 vol % B over 120 min, 17 to 24 vol % B over 26 min, 24 to 30 vol% B over 14 min, 30 to 85 vol% B over 3 min.

Cn1cc2cc(-c3cc4[nH]nc(C5CC5)c4n(-c4ccc(OC(F)F)cc4)c3=O)ccc2n1 [AZ’9567]
differentially expressed liver proteins vs vehicle control (3 mg/kg BID): around 357 | differentially expressed liver proteins vs vehicle control (highest dose (30 mg/kg BID)): 519 | A2m Log2FC (liver protein, 3mg/kg): 1.7 | Abcb1 Log2FC (liver protein, 3mg/kg): 1.4 | Abhd1 Log2FC (liver protein, 3mg/kg): -1.8 | Acaca Log2FC (liver protein, 3mg/kg): -1 | Acbd4 Log2FC (liver protein, 3mg/kg): -0.7 | Acly Log2FC (liver protein, 3mg/kg): -1.1 | Acsl1 Log2FC (liver protein, 3mg/kg): -0.7 | Acsl3 Log2FC (liver protein, 3mg/kg): -0.8 | Acsm2 Log2FC (liver protein, 3mg/kg): 1.4 | Akap5 Log2FC (liver protein, 3mg/kg): -1.0 | Aldh1a1 Log2FC (liver protein, 3mg/kg): 1.7 | Aldh1a7 Log2FC (liver protein, 3mg/kg): 1.5 | Aldh16a1 Log2FC (liver protein, 3mg/kg): -0.6 | Alpl Log2FC (liver protein, 3mg/kg): 1.8 | Als2 Log2FC (liver protein, 3mg/kg): -1.1 | Anpep Log2FC (liver protein, 3mg/kg): 0.8 | Aox1 Log2FC (liver protein, 3mg/kg): -0.6 | Apeh Log2FC (liver protein, 3mg/kg): -0.7 | Apoc1 Log2FC (liver protein, 3mg/kg): -1.2 | Aqp8 Log2FC (liver protein, 3mg/kg): 0.8 | Asns Log2FC (liver protein, 3mg/kg): 1.6 | Baat Log2FC (liver protein, 3mg/kg): -0.8 | Banf1 Log2FC (liver protein, 3mg/kg): 0.8 | Bhmt2 Log2FC (liver protein, 3mg/kg): 1.2 | Bhmt Log2FC (liver protein, 3mg/kg): 1.7 | Brix1 Log2FC (liver protein, 3mg/kg): 0.7 | Ca5a Log2FC (liver protein, 3mg/kg): 1.1 | Carnmt1 Log2FC (liver protein, 3mg/kg): -1.4 | Cbs Log2FC (liver protein, 3mg/kg): -2.9 | Ccnd1 Log2FC (liver protein, 3mg/kg): 12.4 | Cdh1 Log2FC (liver protein, 3mg/kg): 0.7 | Cdo1 Log2FC (liver protein, 3mg/kg): -3.9 | Ces2c Log2FC (liver protein, 3mg/kg): 1.4 | Cfdp1 Log2FC (liver protein, 3mg/kg): 0.5 | Chid1 Log2FC (liver protein, 3mg/kg): 0.9 | Comt Log2FC (liver protein, 3mg/kg): -0.5 | Coq4 Log2FC (liver protein, 3mg/kg): 1.0 | Csad Log2FC (liver protein, 3mg/kg): -0.7 | Ctbs Log2FC (liver protein, 3mg/kg): -0.6 | Cyp2c23 Log2FC (liver protein, 3mg/kg): -0.6 | Cyp4a2 Log2FC (liver protein, 3mg/kg): 1.4 | Cyp4a10 Log2FC (liver protein, 3mg/kg): 1.7 | Dbnl Log2FC (liver protein, 3mg/kg): 0.6 | Dcakd Log2FC (liver protein, 3mg/kg): 1.0 | Dkc1 Log2FC (liver protein, 3mg/kg): 0.6 | Dmgdh Log2FC (liver protein, 3mg/kg): 1 | Dohh Log2FC (liver protein, 3mg/kg): 0.8 | Eif4ebp1 Log2FC (liver protein, 3mg/kg): 1.1 | Enpep Log2FC (liver protein, 3mg/kg): -0.8 | Fabp5 Log2FC (liver protein, 3mg/kg): -0.7 | Fads1 Log2FC (liver protein, 3mg/kg): -1.3 | Fasn Log2FC (liver protein, 3mg/kg): -0.7 | Fdft1 Log2FC (liver protein, 3mg/kg): 0.9 | Fdps Log2FC (liver protein, 3mg/kg): 0.5 | Fgr Log2FC (liver protein, 3mg/kg): 1.5 | Gimd1 Log2FC (liver protein, 3mg/kg): -0.7 | Gmpr Log2FC (liver protein, 3mg/kg): 0.8 | Gnl3 Log2FC (liver protein, 3mg/kg): 1.0 | Gnmt Log2FC (liver protein, 3mg/kg): 1.6 | Gpcpd1 Log2FC (liver protein, 3mg/kg): 1.2 | Gstm1 Log2FC (liver protein, 3mg/kg): -0.8 | Gstm2 Log2FC (liver protein, 3mg/kg): -0.8 | Gtpbp4 Log2FC (liver protein, 3mg/kg): 0.7 | Hexa Log2FC (liver protein, 3mg/kg): -0.6 | Hfe Log2FC (liver protein, 3mg/kg): 1.1 | Hmgcs1 Log2FC (liver protein, 3mg/kg): 1.3 | Hmgn2 Log2FC (liver protein, 3mg/kg): 1.0 | Hnrnpa1 Log2FC (liver protein, 3mg/kg): 1.1 | Hsd17b7 Log2FC (liver protein, 3mg/kg): 0.6 | Idi1 Log2FC (liver protein, 3mg/kg): 0.9 | Igf1 Log2FC (liver protein, 3mg/kg): -1.4 | Kalrn Log2FC (liver protein, 3mg/kg): 0.7 | Lipa Log2FC (liver protein, 3mg/kg): -0.8 | Lrrc8d Log2FC (liver protein, 3mg/kg): 0.9 | Lyrm2 Log2FC (liver protein, 3mg/kg): 0.8 | Mat1a Log2FC (liver protein, 3mg/kg): 0.9 | Mat2a Log2FC (liver protein, 3mg/kg): 0.8 | Mat2b Log2FC (liver protein, 3mg/kg): -1.9 | Me1 Log2FC (liver protein, 3mg/kg): -1 | Mettl7b Log2FC (liver protein, 3mg/kg): -0.6 | Mettl26 Log2FC (liver protein, 3mg/kg): -1.8 | Minpp1 Log2FC (liver protein, 3mg/kg): 0.6 | Mospd1 Log2FC (liver protein, 3mg/kg): -0.5 | Mt1 Log2FC (liver protein, 3mg/kg): 6.2 | Mtr Log2FC (liver protein, 3mg/kg): 1.1 | Mybbp1a Log2FC (liver protein, 3mg/kg): 0.7
